Source: US20070042997A1, “Medicament for treatment of dermal pigmentation” (priority 2003, published 2007)

System: melanocytes
Experiment: Proliferation inhibitory test against melanocyte caused by ultraviolet irradiation
Type: cell-based
Details: cultured melanocytes, compound at 1 μg/ml
Procedure: Proliferation Inhibitory Test Against Melanocyte Caused by Ultraviolet Irradiation
Melanocytes were cultured according to the authentic method, and the proliferation of melanocytes in the presence or absence of test drugs under the ultraviolet irradiation was measured.

O=C(Nc1cc(C(F)(F)F)cc(C(F)(F)F)c1)c1cc(Cl)ccc1O [Compound 50, N-[3,5-bis(trifluoromethyl)phenyl]-5-chloro-2-hydroxybenzamide]
inhibition of transformation and proliferation of melanocyte under ultraviolet irradiation: almost completely inhibited
